The values that follow come from patent US20210338782A1, “STORAGE STABLE SOMATOSTATIN-DOPAMINE CHIMERIC COMPOUNDS AND SALT FORMS THEREOF” (Cydan II, Inc., priority 2019, published 2021).

Entries after “also recorded” stand apart in the source; their conditions may differ.

Data set [1] can be described thus: Photostability of alternative salt forms of lanreotide and TBR-760. In kind it is physicochemical. The note with it: 1.2 million lux hours visible light or 200 watt hours/square meter UV light. An excerpt: In order to evaluate the light sensitivity and stability of TBR-760 chimeric peptide salts, all five salt forms were exposed to ultraviolet (UV) and visible light according to International Council for Harmonisation of Technical Requirements for Pharmaceuticals for Human Use (ICH) guideline Q1B for photostability testing. In brief, a Caron 6540-1 photostability chamber unit with separate UV and light chambers was used for the studies. Visible light exposure was 1.2 million lux hours and UV exposure was 200 watt hours/square meter.
Photostability of lanreotide acetate, lanreotide bromide, lanreotide chloride, TBR-760 acetate, TBR-760 bromide and TBR760 chloride was tested according to the methods of Example 7. Four samples were prepared for each salt form: one control for each of the UV and visible light exposure conditions (controls isolated from light) and one sample for exposure to each of the UV and visible light conditions. For each sample, 2-5 mg of the salt was weighed into 3 mL clear serum vials and stoppered. Vials containing control samples were wrapped in aluminum foil.
Following exposure to visible and UV light, all lanreotide and TBR-760 salts were analyzed by UPLC as described in Example 7.

Data set [2] in a line: Thermostability of alternative salt forms of lanreotide and TBR-760 (UPLC). The note with it: for compound degraded: 4 weeks at 60° C. and ambient humidity; for thermostability in words: increasing temperature and humidity (25° C./60% RH, 40° C./75% RH, 60° C.) up to 4 weeks. Format: physicochemical. The protocol:
Each TBR-760 salt was further evaluated for thermolytic stability over time by setting up three different exposure conditions (25° C. at 60% relative humidity (RH); 40° C. at 75% RH; or 60° C. with open and closed container systems (open dish/closed dish). Approximately 50 mg of each salt form was weighed in a nitrogen-flushed glove box for use in the studies. All samples were stored at −20° C. in a good laboratory practice (GLP) freezer both before and after exposure to the indicated conditions.
The stability of each salt form was assessed by monitoring the post-exposure drug peak purity and by evaluating the post-exposure visual appearance of the salt. The samples were removed from the exposure conditions and allowed to equilibrate to ambient conditions for 15-20 mins. An appropriate amount of each sample was weighed for analysis and dissolved in diluent (deionized water containing 0.1% TFA) to obtain a stock concentration of 1 mg/mL. The stock solution was then diluted to 0.125 mg/mL in an HPLC vial using diluent and the samples were run on a Waters Acquity UPLC system using the parameters shown in Table 4.
We conducted thermostability studies of lanreotide acetate substantially as described in Example 6. These experiments confirmed that lanreotide acetate is […] when exposed to increasing temperature and humidity conditions over time (FIG. 45). […] (FIG. 45). This degree of thermal and humidity instability is disfavored for a pharmaceutical agent, particularly one intended for patient self-administration at home.
To determine whether a thermostable salt form of TBR-760 could be manufactured, a salt exchange was performed as described in Example 1 to generate bromide and chloride salts of TBR-760. Lanreotide bromide and lanreotide chloride salts were also generated and assessed for thermostability to evaluate the effect of the salt form on compound stability and to compare stability of lanreotide and TBR-760 of each salt.
UPLC assays performed as described in Example 6 were further used to determine the number of degradants—and thus the number of impurities—in each sample. Results showing the purity assessment of each sample following thermostability studies are shown in FIGS. 48A-48B (lanreotide and TBR-760 acetate salts), 49A-49B (lanreotide and TBR-760 bromide salts), and 50A-50B (lanreotide and TBR-760 chloride salts).

Setting [3] is: listed as hydrobromide salt of TBR-760.
Setting [4] is: listed as lanreotide hydrobromide.

Take `CCCN1C[C@H](CSCC(=O)NCCCC[C@@H](NC(=O)CSC[C@@H]2C[C@@H]3c4cccc5[nH]cc(c45)C[C@H]3N(CCC)C2)C(=O)N[C@H]2CSSC[C@@H](C(=O)N[C@H](C(N)=O)[C@@H](C)O)NC(=O)[C@H](CC)NC(=O)[C@H](CCCCN)NC(=O)[C@@H](Cc3c[nH]c4ccccc34)NC(=O)[C@H](Cc3ccc(O)cc3)NC2=O)C[C@@H]2c3cccc4[nH]cc(c34)C[C@H]21` [TBR-760 bromide, Dop2-D-Lys(Dop2)-cyclo[Cys-Tyr-D-Trp-Lys-Abu-Cys]-Thr-NH2]: the “photostability in words (UPLC purity)” value in data set [1] is “greater loss of purity than TBR-760 acetate or TBR-760 chloride”; in data set [1] (setting [3]), “significantly degraded”. The “visible appearance after exposure to visible and UV light” value in data set [1] (versus control) is “did not visibly change”. For the same compound, the compound degraded result in data set [2] was “more than 23%”. Further, the thermostability in words result in data set [2] (setting [3]) is recorded as “significantly degraded”.

Turning to `CC(C)[C@@H]1NC(=O)[C@H](CCCCN)NC(=O)[C@@H](Cc2c[nH]c3ccccc23)NC(=O)[C@H](Cc2ccc(O)cc2)NC(=O)[C@@H](NC(=O)[C@H](N)Cc2ccc3ccccc3c2)CSSC[C@@H](C(=O)N[C@H](C(N)=O)[C@@H](C)O)NC1=O` [lanreotide acetate, lanreotide, reference compound], the “photostability in words (UPLC purity)” value in data set [1] was “stable to both visible and UV light”. Besides, in data set [2], the thermostability in words result is “thermostable; also recorded: stable”.

On to `CC(C)[C@@H]1NC(=O)[C@H](CCCCN)NC(=O)[C@@H](Cc2c[nH]c3ccccc23)NC(=O)[C@H](Cc2ccc(O)cc2)NC(=O)[C@@H](NC(=O)[C@H](N)Cc2ccc3ccccc3c2)CSSC[C@@H](C(=O)N[C@H](C(N)=O)[C@@H](C)O)NC1=O` [lanreotide bromide, lanreotide, reference compound], for which the “photostability in words (UPLC purity)” value in data set [1] (setting [4]) is “moderately stable”. Moreover, the compound degraded entry in data set [2] is given as “more than 7%”. Further, the thermostability in words entry in data set [2] (setting [4]) is “moderately stable; also recorded: less stable than lanreotide acetate”.
